Tests used:
5-HT2A [1] = molecular target: T1, 5-HT2A (Homo sapiens, UniProt P28223); assay: Phosphoinositide hydrolysis functional assay; format: cell-based; set-up: expressed in transfected cells; conditions: for EC50: activation of phosphoinositide hydrolysis, stably expressed receptor
Experimental: (§1) Phosphoinositide hydrolysis assays were performed with stably (5-HT2A, 5-HT2C) or transiently (5-HT2B) expressed receptors plated in 24-well culture plates. Transfected cells were loaded with […] overnight in inositol-free DMEM without serum. The next day, phosphate accumulation assays were performed in a modified Krebs-bicarbonate buffer. Kact (nmol/L) and percent Vmax (relative to 5-HT) values were calculated (Roth, B. L., Shoham, M., Choudhary, M., Khan, N. “Identification of Conserved Aromatic Residues Essential for Agonist Binding and Second Messenger Production at 5-Hydroxytryptamine 2A Receptors” Mol. Pharmacol. 1997, 52, 259; Roth, B. L., Choudhary, M., Khan, N., Uluer, A. “High-affinity Agonist Binding is not Sufficient for Agonist Efficacy at 5-Hydroxytryptamine 2A Receptors: Evidence in Favor of a Modified Ternary Complex Model” J. Pharmacol. Exp. Ther. 1997, 280, 576).
(§2) Functional Assay (EC50) in nM. Data represent mean EC50 values for activation of phospho-inositide hydrolysis in cells expressing human 5-HT2A, 5-HT2B or 5-HT2C-INI receptors, relative to serotonin at 100%. When the standard deviation is given, N≧3.

5-HT2B [2] = molecular target: T2, 5-HT2B (Homo sapiens, UniProt P41595); assay: Phosphoinositide hydrolysis functional assay; format: cell-based; set-up: expressed in transfected cells; conditions: activation of phosphoinositide hydrolysis, transiently expressed receptor
Experimental: as §1, §2

human 5-HT2C-INI = molecular target: T3, human 5-HT2C-INI (Homo sapiens, UniProt P28335); assay: Phosphoinositide hydrolysis functional assay; format: cell-based; conditions: for EC50: activation of phosphoinositide hydrolysis, stably expressed receptor; for Emax: value in brackets, read-out: percent Vmax relative to serotonin at 100%, 5-HT2C (converted)
T3 construct: expressed in transfected cells
T3 sequence (P28335 33-458): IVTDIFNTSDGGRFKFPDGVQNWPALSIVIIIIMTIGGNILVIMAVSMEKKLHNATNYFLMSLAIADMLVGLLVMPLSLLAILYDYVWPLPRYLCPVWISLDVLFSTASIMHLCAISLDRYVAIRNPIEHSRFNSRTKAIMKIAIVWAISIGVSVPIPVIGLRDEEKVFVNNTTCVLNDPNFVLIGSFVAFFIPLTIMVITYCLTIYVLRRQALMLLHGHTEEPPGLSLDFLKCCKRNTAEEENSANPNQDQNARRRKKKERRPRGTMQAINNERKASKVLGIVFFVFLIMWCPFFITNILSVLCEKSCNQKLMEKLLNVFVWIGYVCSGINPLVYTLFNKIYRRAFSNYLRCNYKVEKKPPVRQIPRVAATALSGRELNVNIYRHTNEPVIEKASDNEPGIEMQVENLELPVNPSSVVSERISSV
Experimental: as §1, §2

5-HT2A [3] = molecular target: T1, 5-HT2A; assay: Receptor binding, competition binding assay
Experimental: (§3) For initial screens, a 10 micromolar concentration of each compound (dissolved in 10% DMSO) was incubated with the appropriate receptor preparation and percent inhibition determined for duplicate determinations each performed in duplicate. Where >50% inhibition of specific binding was measured, Ki determinations were then measured by competition binding assays in which concentrations from 1 to 100,000 nM were incubated in duplicate. For each Ki value the data represent the mean+/−SD of computer-derived estimates for N=4 separate determinations, as described (Rothman, R., Baumann, M., Savage, J., Rauser, L., McBride, A., Hufeisen, S., Roth, B. L. “Evidence for Possible Involvement of 5-HT2B Receptors in the Cardiac Valvulopathy Associated with Fenfluramine and other Serotonergic Medications” Circulation 2000, 102, 2836; Roth, B. L., Shoham, M., Choudhary, M., Khan, N. “Identification of Conserved Aromatic Residues Essential for Agonist Binding and Second Messenger Production at 5-Hydroxytryptamine 2A Receptors” Mol. Pharmacol. 1997, 52, 259; Roth, B. L., Choudhary, M., Khan, N., Uluer, A. “High-affinity Agonist Binding is not Sufficient for Agonist Efficacy at 5-Hydroxytryptamine 2A Receptors: Evidence in Favor of a Modified Ternary Complex Model” J. Pharmacol. Exp. Ther. 1997, 280, 576).
(§4) Receptor binding (Ki) in nM. When the standard deviation is given N≧3.

5-HT2B [4] = molecular target: T2, 5-HT2B; assay: Receptor binding, competition binding assay
Experimental: as §3, §4

5-HT2C = molecular target: T4, 5-HT2C (Homo sapiens, UniProt P28335); assay: Receptor binding, competition binding assay
T4 sequence (P28335 33-458): T3 sequence (P28335 33-458)
Experimental: as §3, §4

T1 sequence (P28223 whole entry): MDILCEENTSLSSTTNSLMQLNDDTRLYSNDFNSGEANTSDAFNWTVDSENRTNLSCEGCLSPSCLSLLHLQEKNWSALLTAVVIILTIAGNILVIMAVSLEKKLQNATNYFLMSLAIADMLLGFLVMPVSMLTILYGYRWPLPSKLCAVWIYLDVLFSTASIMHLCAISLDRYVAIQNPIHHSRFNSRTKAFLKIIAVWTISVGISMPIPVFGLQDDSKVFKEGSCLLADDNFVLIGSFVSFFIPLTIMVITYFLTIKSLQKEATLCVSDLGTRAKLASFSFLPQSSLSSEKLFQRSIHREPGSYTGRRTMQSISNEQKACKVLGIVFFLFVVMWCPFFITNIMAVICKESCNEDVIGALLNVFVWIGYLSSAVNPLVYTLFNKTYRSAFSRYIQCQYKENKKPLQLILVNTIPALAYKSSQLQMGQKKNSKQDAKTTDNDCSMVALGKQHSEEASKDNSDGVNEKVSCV
T2 sequence (P41595 whole entry): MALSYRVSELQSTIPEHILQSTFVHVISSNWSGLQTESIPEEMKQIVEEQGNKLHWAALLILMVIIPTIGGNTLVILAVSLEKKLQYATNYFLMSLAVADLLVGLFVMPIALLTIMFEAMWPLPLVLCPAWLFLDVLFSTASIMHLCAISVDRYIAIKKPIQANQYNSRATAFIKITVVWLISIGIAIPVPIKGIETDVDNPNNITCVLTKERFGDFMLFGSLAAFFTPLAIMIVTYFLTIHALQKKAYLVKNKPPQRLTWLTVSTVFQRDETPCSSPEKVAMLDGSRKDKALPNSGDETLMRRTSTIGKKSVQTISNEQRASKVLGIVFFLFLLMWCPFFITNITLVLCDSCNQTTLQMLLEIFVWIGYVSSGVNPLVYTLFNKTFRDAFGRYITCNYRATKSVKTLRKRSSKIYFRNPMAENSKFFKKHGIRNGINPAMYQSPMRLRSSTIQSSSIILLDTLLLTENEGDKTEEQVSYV

SMILES: CN(C)CCc1cn(CCF)c2c(F)ccc(O)c12 [Compound O-3975, 3-(2-Dimethylaminoethyl)-7-fluoro-1-(2-fluoroethyl)-1H-indol-4-ol]
- melting point: 97 to 101 °C
- EC50 (5-HT2A [1]): 614 nM
- EC50 (5-HT2B [2]): > 10000 nM
- EC50 (human 5-HT2C-INI): > 2000 nM
- Ki (5-HT2A [3]): 308 ± 61.4 nM
- Ki (5-HT2B [4]): 2.77 ± 0.31 nM
- Ki (5-HT2C): 7.74 ± 0.65 nM

SMILES: CCn1cc(CCN(C)C)c2c(O)ccc(F)c21 [Compound O-3943, 3-(2-Dimethylaminoethyl)-7-fluoro-1-ethyl-1H-indol-4-ol]
- melting point: 114 to 120 °C
- EC50 (5-HT2A [1]): 12.9 nM
- EC50 (5-HT2B [2]): > 10000 nM
- EC50 (human 5-HT2C-INI): 5.4 ± 2.5 nM
- Emax (human 5-HT2C-INI): 100%
- Ki (5-HT2A [3]): 97 ± 35 nM
- Ki (5-HT2B [4]): 2.5 ± 0.84 nM
- Ki (5-HT2C): 9.1 ± 3.99 nM

SMILES: CCCn1cc(CCN(C)C)c2c(O)ccc(F)c21 [Compound O-3952, 3-(2-Dimethylaminoethyl)-7-fluoro-1-propyl-1H-indol-4-ol]
- melting point: 75 to 79 °C
- EC50 (5-HT2A [1]): 1280 nM
- percent Vmax relative to serotonin at 100%, 5-HT2A (5-HT2A [1]; value in brackets): 103% +/− 7
- EC50 (5-HT2B [2]): > 10000 nM
- EC50 (human 5-HT2C-INI): 11 ± 4 nM
- Emax (human 5-HT2C-INI): 89%
- Ki (5-HT2A [3]): 492 ± 79.3 nM
- Ki (5-HT2B [4]): 2.79 ± 0.31 nM
- Ki (5-HT2C): 10.5 ± 2.39 nM

Reference: patent US8071786B2, “Indole compounds useful as serotonin selective agents” (Galenea Corp., priority 2005, dated 2011)
